Results taken from US10004701B2, “Methods and compositions for treating infection” (UNIVERSITY OF ROCHESTER, priority 2012, dated 2018).
Counter-ions that a name gives are not always drawn. Like-named read-outs stand apart in the source and are kept apart here.

Tests used:
Experiment in all cases: AK assay 384-well format, Prestwick library screening
[1] = test system: E. coli; type: cell-based, Escherichia coli; conditions: 50 μM final drug concentration; for fold induction at 50 µM: Escherichia coli, 3 h
[2] = test system: E. faecium; type: cell-based, Enterococcus faecium; conditions: 50 μM final drug concentration; for fold induction at 50 µM: Enterococcus faecium, 3 h
[3] = test system: P. aeruginosa; type: cell-based, Pseudomonas aeruginosa; conditions: 50 μM final drug concentration; for fold induction at 50 µM: Pseudomonas aeruginosa, 3 h
[4] = test system: S. aureus strain USA300-0114; type: cell-based, Staphylococcus aureus; conditions: 50 μM final drug concentration; for fold induction at 50 µM: Staphylococcus aureus, USA300, 3 h
[5] = test system: A. baumannii strain 98-37-09; type: cell-based, Acinetobacter baumannii; conditions: 50 μM final drug concentration; for fold induction at 50 µM: Acinetobacter baumannii, 983709, 3 h
[6] = test system: K. pneumoniae; type: cell-based, Klebsiella pneumoniae; conditions: 50 μM final drug concentration; for fold induction at 50 µM: Klebsiella pneumoniae, 3 h
[7] = test system: E. cloacae; type: cell-based, Enterobacter cloacae; conditions: 50 μM final drug concentration; for fold induction at 50 µM: Enterobacter cloacae, 3 h
[8] = planktonic, cutoff for positive-scoring molecules 3-fold increase, read-out: AK-based Prestwick Library Screening Results, E. coli (fold increase in extracellular AK activity)
[9] = planktonic, cutoff for positive-scoring molecules 3-fold increase, read-out: AK-based Prestwick Library Screening Results, E. faecium (fold increase in extracellular AK activity)
[10] = planktonic, cutoff for positive-scoring molecules 3-fold increase, read-out: AK-based Prestwick Library Screening Results, P. aeruginosa (fold increase in extracellular AK activity)
[11] = planktonic, cutoff for positive-scoring molecules 3-fold increase, read-out: AK-based Prestwick Library Screening Results, S. aureus (fold increase in extracellular AK activity)
[12] = planktonic, cutoff for positive-scoring molecules 3-fold increase, read-out: AK-based Prestwick Library Screening Results, A. baumannii (fold increase in extracellular AK activity)
[13] = planktonic, cutoff for positive-scoring molecules 3-fold increase, read-out: AK-based Prestwick Library Screening Results, K. pneumoniae (fold increase in extracellular AK activity)
[14] = planktonic, cutoff for positive-scoring molecules 3-fold increase, read-out: AK-based Prestwick Library Screening Results, E. cloacae (fold increase in extracellular AK activity)
[15] = 384-well format, cutoff for positive-scoring molecules 3-fold increase, read-out: AK-based Prestwick Library Screening Results, E. coli (increase in extracellular AK activity)
[16] = 384-well format, cutoff for positive-scoring molecules 3-fold increase, read-out: AK-based Prestwick Library Screening Results, E. faecium (increase in extracellular AK activity)
[17] = 384-well format, cutoff for positive-scoring molecules 3-fold increase, read-out: AK-based Prestwick Library Screening Results, P. aeruginosa (increase in extracellular AK activity)
[18] = 384-well format, cutoff for positive-scoring molecules 3-fold increase, read-out: AK-based Prestwick Library Screening Results, S. aureus (increase in extracellular AK activity)
[19] = 384-well format, cutoff for positive-scoring molecules 3-fold increase, read-out: AK-based Prestwick Library Screening Results, A. baumannii (increase in extracellular AK activity)
[20] = 384-well format, cutoff for positive-scoring molecules 3-fold increase, read-out: AK-based Prestwick Library Screening Results, K. pneumoniae (increase in extracellular AK activity)
[21] = 384-well format, cutoff for positive-scoring molecules 3-fold increase, read-out: AK-based Prestwick Library Screening Results, E. cloacae (increase in extracellular AK activity)

CN1CCN(C(c2ccccc2)c2ccc(Cl)cc2)CC1 (centres unmarked) [Chlorcyclizine hydrochloride]
fold induction at 50 µM ([1]; cutoff for positive-scoring molecules 3-fold increase, read-out: AK-based Prestwick Library Screening Results, E. coli (fold increase in extracellular AK activity)): 1.3
fold induction at 50 µM ([2]; cutoff for positive-scoring molecules 3-fold increase, read-out: AK-based Prestwick Library Screening Results, E. faecium (fold increase in extracellular AK activity)): 1
fold induction at 50 µM ([3]; cutoff for positive-scoring molecules 3-fold increase, read-out: AK-based Prestwick Library Screening Results, P. aeruginosa (fold increase in extracellular AK activity)): 1.1
fold induction at 50 µM ([4]; cutoff for positive-scoring molecules 3-fold increase, read-out: AK-based Prestwick Library Screening Results, S. aureus (fold increase in extracellular AK activity)): 1.2
fold induction at 50 µM ([5]; cutoff for positive-scoring molecules 3-fold increase, read-out: AK-based Prestwick Library Screening Results, A. baumannii (fold increase in extracellular AK activity)): 1.5
fold induction at 50 µM ([6]; cutoff for positive-scoring molecules 3-fold increase, read-out: AK-based Prestwick Library Screening Results, K. pneumoniae (fold increase in extracellular AK activity)): 1.1
fold induction at 50 µM ([7]; cutoff for positive-scoring molecules 3-fold increase, read-out: AK-based Prestwick Library Screening Results, E. cloacae (fold increase in extracellular AK activity)): 1.6

CN1C(=O)CCS(=O)(=O)C1c1ccc(Cl)cc1 (centres unmarked) [Chlormezanone]
fold induction at 50 µM ([1]; planktonic E. coli, […], read-out: AK-based Prestwick Library Screening Results, E. coli (increase in extracellular AK activity)): 0.7
fold induction at 50 µM ([2]; planktonic E. faecium, […], read-out: AK-based Prestwick Library Screening Results, E. faecium (increase in extracellular AK activity)): 1
fold induction at 50 µM ([3]; planktonic P. aeruginosa, […], read-out: AK-based Prestwick Library Screening Results, P. aeruginosa (increase in extracellular AK activity)): 0.6
fold induction at 50 µM ([4]; planktonic S. aureus, […], read-out: AK-based Prestwick Library Screening Results, S. aureus (increase in extracellular AK activity)): 0.7
fold induction at 50 µM ([5]; planktonic A. baumannii, […], read-out: AK-based Prestwick Library Screening Results, A. baumannii (increase in extracellular AK activity)): 0.7
fold induction at 50 µM ([6]; planktonic K. pneumoniae, […], read-out: AK-based Prestwick Library Screening Results, K. pneumoniae (increase in extracellular AK activity)): 0.6
fold induction at 50 µM ([7]; planktonic E. cloacae, […], read-out: AK-based Prestwick Library Screening Results, E. cloacae (increase in extracellular AK activity)): 0.7

O=C(/C=C/c1ccc(O)c(O)c1)O[C@@H]1C[C@](O)(C(=O)O)C[C@@H](O)[C@H]1O [Chlorogenic acid]
fold induction at 50 µM ([1]; planktonic E. coli, cutoff for positive-scoring molecules 3-fold increase, read-out: AK-based Prestwick Library Screening Results, E. coli (increase in extracellular AK activity)): 0.8
fold induction at 50 µM ([2]; planktonic E. faecium, cutoff for positive-scoring molecules 3-fold increase, read-out: AK-based Prestwick Library Screening Results, E. faecium (increase in extracellular AK activity)): 0.9
fold induction at 50 µM ([3]; planktonic P. aeruginosa, cutoff for positive-scoring molecules 3-fold increase, read-out: AK-based Prestwick Library Screening Results, P. aeruginosa (increase in extracellular AK activity)): 0.7
fold induction at 50 µM ([4]; planktonic S. aureus, cutoff for positive-scoring molecules 3-fold increase, read-out: AK-based Prestwick Library Screening Results, S. aureus (increase in extracellular AK activity)): 0.5
fold induction at 50 µM ([5]; planktonic A. baumannii, cutoff for positive-scoring molecules 3-fold increase, read-out: AK-based Prestwick Library Screening Results, A. baumannii (increase in extracellular AK activity)): 0.8
fold induction at 50 µM ([6]; planktonic K. pneumoniae, cutoff for positive-scoring molecules 3-fold increase, read-out: AK-based Prestwick Library Screening Results, K. pneumoniae (increase in extracellular AK activity)): 0.7
fold induction at 50 µM ([7]; planktonic E. cloacae, cutoff for positive-scoring molecules 3-fold increase, read-out: AK-based Prestwick Library Screening Results, E. cloacae (increase in extracellular AK activity)): 0.8

CN(C)CCN(Cc1ccc(Cl)cc1)c1ccccn1 [Chloropyramine hydrochloride]
fold induction at 50 µM [1, 8]: 0.7
fold induction at 50 µM [2, 9]: 0.9
fold induction at 50 µM [3, 10]: 0.5
fold induction at 50 µM [4, 11]: 0.5
fold induction at 50 µM [5, 12]: 0.6
fold induction at 50 µM [6, 13]: 0.6
fold induction at 50 µM [7, 14]: 0.6

NS(=O)(=O)c1cc2c(cc1Cl)N=CNS2(=O)=O [Chlorothiazide]
fold induction at 50 µM [1, 15]: 0.9
fold induction at 50 µM [2, 16]: 1
fold induction at 50 µM [3, 17]: 0.9
fold induction at 50 µM [4, 18]: 0.8
fold induction at 50 µM [5, 19]: 0.9
fold induction at 50 µM [6, 20]: 0.7
fold induction at 50 µM [7, 21]: 0.9

COc1ccc(C(Cl)=C(c2ccc(OC)cc2)c2ccc(OC)cc2)cc1 [Chlorotrianisene]
fold induction at 50 µM [1, 8]: 0.9
fold induction at 50 µM [2, 9]: 1
fold induction at 50 µM [3, 10]: 0.8
fold induction at 50 µM [4, 11]: 0.8
fold induction at 50 µM [5, 12]: 0.8
fold induction at 50 µM [6, 13]: 0.8
fold induction at 50 µM [7, 14]: 1.4

CN(C)CCC(c1ccc(Cl)cc1)c1ccccn1 (centres unmarked) [Chlorpheniramine maleate]
fold induction at 50 µM [1, 15]: 1
fold induction at 50 µM [2, 16]: 0.9
fold induction at 50 µM [3, 17]: 0.8
fold induction at 50 µM [4, 18]: 0.8
fold induction at 50 µM [5, 19]: 0.9
fold induction at 50 µM [6, 20]: 0.7
fold induction at 50 µM [7, 21]: 1.1

NC(=O)OCC(O)COc1ccc(Cl)cc1 (centres unmarked) [Chlorphensin carbamate]
AK-based Prestwick Library Screening Results: E. coli (increase in extracellular AK activity) ([1]; planktonic E. coli, 384-well, cutoff for positive-scoring molecules 3-fold increase): 1.2
AK-based Prestwick Library Screening Results: E. faecium (increase in extracellular AK activity) ([2]; planktonic E. faecium, 384-well, cutoff for positive-scoring molecules 3-fold increase): 0.9
AK-based Prestwick Library Screening Results: P. aeruginosa (increase in extracellular AK activity) ([3]; planktonic P. aeruginosa, 384-well, cutoff for positive-scoring molecules 3-fold increase): 1.1
AK-based Prestwick Library Screening Results: S. aureus (increase in extracellular AK activity) ([4]; planktonic S. aureus, 384-well, cutoff for positive-scoring molecules 3-fold increase): 1.0
AK-based Prestwick Library Screening Results: A. baumannii (increase in extracellular AK activity) ([5]; planktonic A. baumannii, 384-well, cutoff for positive-scoring molecules 3-fold increase): 1.3
AK-based Prestwick Library Screening Results: K. pneumoniae (increase in extracellular AK activity) ([6]; planktonic K. pneumoniae, 384-well, cutoff for positive-scoring molecules 3-fold increase): 1.1
AK-based Prestwick Library Screening Results: E. cloacae (increase in extracellular AK activity) ([7]; planktonic E. cloacae, 384-well, cutoff for positive-scoring molecules 3-fold increase): 1.4
